Laboratory results as given in patent US9718828B2 (MERCK SHARP & DOHME CORP., priority 2011, dated 2017).
pEC50: −log10 of the molar value. Structures can show the parent of a compound that is named as a salt.

Molecular target: Btk enzyme (His-Btk) (Homo sapiens (Human), UniProt Q06187)
Experiment: Btk enzyme activity, IMAP fluorescence polarization assay (Assay Method A)
Details: not given

Sequence of Btk enzyme (His-Btk) (Q06187 whole entry): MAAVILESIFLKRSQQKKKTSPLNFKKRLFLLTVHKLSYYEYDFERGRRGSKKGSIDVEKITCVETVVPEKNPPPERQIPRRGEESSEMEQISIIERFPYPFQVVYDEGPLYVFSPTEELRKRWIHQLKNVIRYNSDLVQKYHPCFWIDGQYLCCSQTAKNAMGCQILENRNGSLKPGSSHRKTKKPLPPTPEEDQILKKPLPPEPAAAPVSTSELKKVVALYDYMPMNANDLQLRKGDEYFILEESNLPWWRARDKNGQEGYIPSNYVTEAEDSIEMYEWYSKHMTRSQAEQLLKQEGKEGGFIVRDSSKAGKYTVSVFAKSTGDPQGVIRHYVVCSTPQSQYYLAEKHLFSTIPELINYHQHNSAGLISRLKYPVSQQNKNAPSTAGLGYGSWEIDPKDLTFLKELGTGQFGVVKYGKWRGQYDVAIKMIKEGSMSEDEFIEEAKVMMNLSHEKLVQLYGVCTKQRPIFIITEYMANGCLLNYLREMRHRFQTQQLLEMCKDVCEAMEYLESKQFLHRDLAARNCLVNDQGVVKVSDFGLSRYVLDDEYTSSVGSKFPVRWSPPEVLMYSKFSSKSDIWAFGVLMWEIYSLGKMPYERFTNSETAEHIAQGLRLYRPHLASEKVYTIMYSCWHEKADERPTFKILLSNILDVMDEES

pEC50	Structure (SMILES)
7.00 to 8.00	CC(C)(F)C(=O)N1CCC[C@@H](n2nc(-c3ccc(C(=O)Nc4cc(C(F)(F)F)ccn4)cc3)c3c(N)ncnc32)C1 [Example 270, (R)-4-(4-amino-1-(1-(2-fluoro-2-methylpropanoyl)piperidin-3-yl)-1H-pyrazolo[3,4-d]pyrimidin-3-yl)-N-(4-(trifluoromethyl)pyridin-2-yl)benzamide]
7.00 to 8.00	CC1CCc2nc(NC(=O)c3ccc(-c4nc([C@H]5[C@@H]6COC[C@@H]65)n5ccnc(N)c45)cc3)sc2C1 (stereo partly drawn) [Example 32, 4-(8-amino-3-((1R,5S,6S)-3-oxabicyclo[3.1.0]hexan-6-yl)imidazo[1,5-a]pyrazin-1-yl)-N-(6-methyl-4,5,6,7-tetrahydrobenzo[d]thiazol-2-yl)benzamide, TFA salt]
6.00 to 7.00	CCC(=O)N1CCC2(CC1)CC2c1nc(-c2ccc(C(=O)Nc3ccccn3)cc2)c2c(N)nccn12 (centres unmarked) [Example 153, 4-(8-amino-3-(6-propionyl-6-azaspiro[2.5]octan-1-yl)imidazo[1,5-a]pyrazin-1-yl)-N-(pyridin-2-yl)benzamide]
7.00 to 8.00	COc1cc(-c2nc([C@H]3CC[C@H](O)CC3)n3ccnc(N)c23)ccc1C(=O)Nc1ccccn1 [Example 9, 4-(8-amino-3-((trans)-4-hydroxycyclohexyl)imidazo[1,5-a]pyrazin-1-yl)-2-methoxy-N-(pyridin-2-yl)benzamide]
7.00 to 8.00	Nc1nccn2c([C@@H]3CCC[C@H](NC(=O)OCc4ccccc4)C3)nc(-c3ccc(C(=O)Nc4cc(C(F)(F)F)ccn4)cc3)c12 (relative stereo) [Example 154, benzyl (cis)-3-(8-amino-1-(4-(4-(trifluoromethyl)pyridin-2-ylcarbamoyl)phenyl)imidazo [1,5-a]pyrazin-3-yl)cyclohexylcarbamate]
7.00 to 8.00	Nc1nccn2c1c(-c1ccc(C(=O)Nc3ccccn3)c(Cl)c1)nc2[C@H]1CC[C@H](O)CC1 [Example 23, 4-(8-amino-3-((trans)-4-hydroxycyclohexyl)imidazo[1,5-a]pyrazin-1-yl)-2-chloro-N-(pyridin-2-yl)benzamide]

Same assay, conditions: read-out: EC50 Btk activity values - Assay Method A

Structure (SMILES)	pEC50
Nc1ncc(Cl)n2c([C@@H]3CCCNC3)nc(-c3ccc(C(=O)Nc4cc(C(F)(F)F)ccn4)cc3)c12 [Example 307]	> 8.00

Same assay, conditions: read-out: EC50 Btk activity values - Assay Method A; IMAP-FP, 60 min pre-incubation, 5 μM ATP; class 100-1000 is given as ≧100 nM-<1 μM

pEC50	Structure (SMILES)
> 8.00	CSCCC(=O)N1C[C@H](c2nc(-c3ccc(C(=O)Nc4cc(C(F)(F)F)ccn4)cc3)c3c(N)nccn23)CC[C@@H]1C (relative stereo) [Example 195, 4-(8-amino-3-((cis)-6-methyl-1-(3-(methylthio)propanoyl)piperidin-3-yl)imidazo[1,5-a]pyrazin-1-yl)-N-(4-(trifluoromethyl)pyridin-2-yl)benzamide, TFA salt]
> 8.00	C[C@H]1CC[C@@H](c2nc(-c3ccc(C(=O)Nc4cc(C5CC5)ccn4)cc3)c3c(N)nccn23)CN1C(=O)C1CCC1 (relative stereo) [Example 197, 4-(8-amino-3-((cis)-1-(cyclobutanecarbonyl)-6-methylpiperidin-3-yl)imidazo[1,5-a]pyrazin-1-yl)-N-(4-cyclopropylpyridin-2-yl)benzamide, TFA salt]
> 8.00	CCC(=O)C(=O)N1CCC[C@@H](c2nc(-c3ccc(C(=O)Nc4cc(C5CC5)ccn4)cc3)c3c(N)nccn23)C1 [Example 114, (R)-4-(8-amino-3-(1-(2-oxobutanoyl)piperidin-3 yl)imidazo[1,5-a]pyrazin-1-yl)-N-(4-cyclopropylpyridin-2-yl)benzamide]
> 8.00	CCOC(=O)N1CCC[C@@H](n2nc(-c3ccc(C(=O)Nc4cc(C(F)(F)F)ccn4)cc3)c3c(N)ncnc32)C1 [Example 273, (R)-ethyl 3-(4-amino-3-(4-(4-(trifluoromethyl)pyridin-2-ylcarbamoyl)phenyl)-1H-pyrazolo[3,4-d]pyrimidin-1-yl)piperidine-1-carboxylate]
> 8.00	Nc1nccn2c([C@@H]3CCC[C@@H](NC(=O)C4CCC4)C3)nc(-c3ccc(C(=O)Nc4cc(C(F)(F)F)ccn4)cc3)c12 (relative stereo) [Example 171, 4-(8-amino-3-((trans)-3-(cyclobutanecarboxamido)cyclohexyl)imidazo[1,5-a]pyrazin-1-yl)-N-(4-(trifluoromethyl)pyridin-2-yl)benzamide]
> 8.00	COCCC(=O)N[C@@H]1CCC[C@@H](c2nc(-c3ccc(C(=O)Nc4cc(C(F)(F)F)ccn4)cc3)c3c(N)nccn23)C1 (relative stereo) [Example 166, 4-(8-amino-3-((trans)-3-(3-methoxypropanamido)cyclohexyl)imidazo[1,5-a]pyrazin-1-yl)-N-(4-(trifluoromethyl)pyridin-2-yl)benzamide]
> 8.00	CC(C)C(=O)N1C[C@H](c2nc(-c3ccc(C(=O)Nc4ccccn4)cc3)c3c(N)nccn23)CC[C@@H]1C (relative stereo) [Example 205, 4-(8-amino-3-((cis)-1-isobutyryl-6-methylpiperidin-3-yl)imidazo[1,5-a]pyrazin-1-yl)-N-(pyridin-2-yl)benzamide, TFA salt]
> 8.00	CC1(C(=O)N2CCC[C@@H](c3nc(-c4ccc(C(=O)Nc5cc(C(F)(F)F)ccn5)cc4)c4c(N)ncc(Cl)n34)C2)COC1 [Example 301, (R)-4-(8-amino-5-chloro-3-(1-(3-methyloxetane-3-carbonyl)piperidin-3-yl)imidazo[1,5-a]pyrazin-1-yl)-N-(4-(trifluoromethyl)pyridin-2-yl)benzamide]
> 8.00	CCc1cnc(NC(=O)c2ccc(-c3nc([C@H]4CC[C@H](O)CC4)n4ccnc(N)c34)cc2)s1 [Example 4, 4-(8-amino-3-((trans)-4-hydroxycyclohexyl)imidazo[1,5-a]pyrazin-1-yl)-N-(5-ethylthiazol-2-yl)benzamide]
> 8.00	CC(CO)(CO)C(=O)N1CCC[C@@H](c2nc(-c3ccc(C(=O)Nc4cc(C(F)(F)F)ccn4)cc3)c3c(N)nccn23)C1 [Example 105, (R)-4-(8-amino-3-(1-(3-hydroxy-2-(hydroxymethyl)-2-methylpropanoyl)piperidin-3 yl)imidazo[1,5-a]pyrazin-1-yl)-N-(4-(trifluoromethyl)pyridin-2-yl)benzamide]
> 8.00	Nc1nccn2c([C@@H]3C[C@H](O)CN(C(=O)C4CC4)C3)nc(-c3ccc(C(=O)Nc4cc(C(F)(F)F)ccn4)cc3)c12 (relative stereo) [Example 180, 4-(8-amino-3-((cis)-1-(cyclopropanecarbonyl)-5-hydroxypiperidin-3-yl)imidazo[1,5-a]pyrazin-1-yl)-N-(4-(trifluoromethyl)pyridin-2-yl)benzamide]
> 8.00	CC1(C(=O)N[C@H]2CCCN(c3nc(-c4ccc(C(=O)Nc5cc(C(F)(F)F)ccn5)cc4)c4c(N)nccn34)C2)COC1 [Example 218, (S)-N-(1-(8-amino-1-(4-(4-(trifluoromethyl)pyridin-2-ylcarbamoyl)phenyl)imidazo [1,5-a]pyrazin-3-yl)piperidin-3-yl)-3-methyloxetane-3-carboxamide]
> 8.00	N#Cc1csc(C(=O)N2CCC[C@@H](c3nc(-c4ccc(C(=O)Nc5cc(C6CC6)ccn5)cc4)c4c(N)nccn34)C2)c1 [Example 118, (R)-4-(8-amino-3-(1-(4-cyanothiophene-2-carbonyl)piperidin-3 yl)imidazo[1,5-a]pyrazin-1-yl)-N-(4-cyclopropylpyridin-2-yl)benzamide]
